The test system of this assay is rat lacrimal secretion. Put plainly: Rat lacrimal secretion in vivo, Schirmer test paper, after intravenous administration of PAR-associated peptides. To be noted: male Wistar rat. On the procedure:
An amount of lacrimal fluid may be measured according to the known method such as a method of Iga et al. using a rat (Iga, Y. et al., Jpn. J. Pharmacol., 78, 373-80, 1998). In particular, a rat is anesthetized with pentobarbital (50 mg/kg, intraabdominal administration), and a paper with 2 mm width for testing the human lacrimal secretion function, the Schirmer test paper (Showa Yakuhin Kako Co., Ltd.) is inserted into a lower eyelid of the rat. After a period of time fixed has passed, the test paper is removed, and a length of the wetted portion of the test paper is measured using a caliper square.
Male Wistar-line rat at 6 weeks of age was used in experiments. Each animal was housed for one week under the environment of room temperature of 23±2° C., a humidity of 50±5% and a 12 hours light/dark cycle (light: 07:00-19:00) and, thereafter, it was subjected to experiments. During the housing and experiment period, the animal was fed a solid chow and water ad lib.
Four animals were used in Examples 3-4, and the results thereof are shown in the mean±S.E.M. The test of significance was performed according to a Tukey's multiple comparison test.
An amount of rat lacrimal fluid was measured according to the method of Iga et al. (Iga, Y. et al., Jpn. J. Pharmacol., 78, 373-80, 1998). That is, the rat was anesthetized with pentobarbital (50 mg/kg, intraabdominal administration), and a paper with 2 mm width for testing human lacrimal secretion function, the Schirmer test paper (Showa Yakuhin Kako Co., Ltd.) was inserted into a lower eyelid of the rat. After the period of time fixed has passed, the test paper was removed, and a length of a wetted portion of the test paper was measured using a caliper square. An amount of lacrimal fluid was measured at 1, 2, 4, 6, 8 and 10 minutes after intravenous administration of a solvent or PAR-associated peptides.
An amount of lacrimal fluid was measured as described in Example 3.

Setting [1] is: 5 μmol/kg intravenously, peptide alone, Example 3 (FIG. 1).

Where no end group is shown, it is not given here.

The values below come from patent US7348306B2, “Composition for promoting lacrimal secretion” (Fuso Pharmaceutical Industries, Ltd., priority 1999, dated 2008).

Turning to “Leu-Arg-Gly-Ile-Leu-Ser-NH2 (LRGILS-NH2) [LRp-NH2, designed control peptide, C-terminal amidated, reference compound]”, the “effect on rat lacrimal secretion” value (5 μmol/kg intravenously, Example 4 (FIG. 2), vs solvent-administrated group) was “no effect”.
On to “Ser-Leu-Ile-Gly-Arg-Leu-NH2 (SLIGRL-NH2) [SLp-NH2]”, for which, under setting [1], the “effect on lacrimal secretion (length of wetted portion of Schirmer test paper)” value was “significant promotion of lacrimal secretion” and the “time of peak of lacrimal secretion promotion after intravenous administration” value worked out at 1 min. Also, the “dose-dependency of rat lacrimal secretion promoting action” value (1 to 5 μmol/kg intravenously, Example 4 (FIG. 2), vs solvent) was “promoted the rat lacrimal secretion in doses of ranging from 1 to 5 μmol/kg in a dose-dependent manner”. Moreover, under “SLp-NH2 5 μmol/kg i.v. with amastatine 2.5 μmol/kg i.v. 1 minute before, P<0.01 vs SLp-NH2 (Tukey test)”, the “lacrimal secretion 8 and 10 minutes after combined treatment with amastatine, as compared with SLp-NH2 alone” value is recorded as “significant promotion of lacrimal secretion”. Also, the “persistence of lacrimal secretion promoting action in combined treatment with amastatine” value (SLp-NH2 5 μmol/kg i.v. with amastatine 2.5 μmol/kg i.v. 1 minute before, compared with SLp-NH2 alone) is “more persistent than that of SLp-NH2 alone”.
